Experimental data from ChEMBL document CHEMBL1201862, “PubChem BioAssay data set” (2004).
Active and inactive are the calls of the source.

Columns and labels:
[1] = THP-1 cell cytotoxicity, dose response, cytotoxicity control for non-replicating M. tuberculosis project (AID 489025); format: functional
[2] = biological target: DNA dC->dU-editing enzyme APOBEC-3A (Homo sapiens, UniProt P31941); experiment: Dose Response confirmation of small molecule APOBEC3A DNA Deaminase Inhibitors via a fluorescence-based single-stranded DNA deaminase assay. [Related pubchem assays (depositor defined):AID493011, AID493024]; format: functional
DNA dC->dU-editing enzyme APOBEC-3A, sequence (P31941 whole entry): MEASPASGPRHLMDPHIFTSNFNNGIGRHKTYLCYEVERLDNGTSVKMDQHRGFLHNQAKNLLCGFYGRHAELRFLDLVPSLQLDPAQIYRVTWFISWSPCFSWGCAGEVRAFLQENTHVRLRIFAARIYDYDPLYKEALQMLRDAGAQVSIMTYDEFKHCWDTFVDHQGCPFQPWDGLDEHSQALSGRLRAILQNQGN

[3] = biological target: DNA dC->dU-editing enzyme APOBEC-3G (Homo sapiens, UniProt Q9HC16); format: functional;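 also: Dose-response counterscreen measuring inhibition of APOBEC3G DNA deaminase activity, run while confirming APOBEC3A inhibitors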
DNA dC->dU-editing enzyme APOBEC-3G, sequence (Q9HC16 whole entry): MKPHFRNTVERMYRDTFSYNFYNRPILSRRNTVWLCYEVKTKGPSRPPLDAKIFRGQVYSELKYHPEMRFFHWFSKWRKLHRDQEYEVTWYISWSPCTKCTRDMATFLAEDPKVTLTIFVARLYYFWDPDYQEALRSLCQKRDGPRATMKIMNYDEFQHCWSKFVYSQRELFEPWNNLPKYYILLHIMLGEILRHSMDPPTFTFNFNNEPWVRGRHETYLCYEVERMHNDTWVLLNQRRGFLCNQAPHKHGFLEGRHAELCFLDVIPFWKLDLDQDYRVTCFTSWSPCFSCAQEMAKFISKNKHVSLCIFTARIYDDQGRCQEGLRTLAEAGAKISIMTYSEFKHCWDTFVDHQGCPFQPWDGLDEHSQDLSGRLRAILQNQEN

[4] = A cytotoxicity screen of small molecule inhibitors of the PhoP region in Salmonella typhi identified in the primary screen. [Related pubchem assays: 1850, 1864, 1985 ]; format: functional
[5] = biological target: Prothrombin (Homo sapiens, UniProt P00734); experiment: Thrombin 1536 HTS Dose Response Confirmation. [Related pubchem assays: 1046 (Thrombin 1536 HTS; hits were confirmed in this assay)]; format: functional
[6] = biological target: T1, Heat shock factor protein 1 (Mus musculus, UniProt P38532); experiment: enhancement of HSF1-driven luciferase signal – cell-based, NIH3T3, luminescence, dose retest, confirmation (AID 435004); format: functional;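 also: stress induced by proteasome inhibitor MG132 added 30 min after compound; luciferase reporter driven by HSF1 response element in NIH3T3 cells; actives raise luminescence as potentiators of the MG132 stress response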
T1 sequence (P38532 whole entry): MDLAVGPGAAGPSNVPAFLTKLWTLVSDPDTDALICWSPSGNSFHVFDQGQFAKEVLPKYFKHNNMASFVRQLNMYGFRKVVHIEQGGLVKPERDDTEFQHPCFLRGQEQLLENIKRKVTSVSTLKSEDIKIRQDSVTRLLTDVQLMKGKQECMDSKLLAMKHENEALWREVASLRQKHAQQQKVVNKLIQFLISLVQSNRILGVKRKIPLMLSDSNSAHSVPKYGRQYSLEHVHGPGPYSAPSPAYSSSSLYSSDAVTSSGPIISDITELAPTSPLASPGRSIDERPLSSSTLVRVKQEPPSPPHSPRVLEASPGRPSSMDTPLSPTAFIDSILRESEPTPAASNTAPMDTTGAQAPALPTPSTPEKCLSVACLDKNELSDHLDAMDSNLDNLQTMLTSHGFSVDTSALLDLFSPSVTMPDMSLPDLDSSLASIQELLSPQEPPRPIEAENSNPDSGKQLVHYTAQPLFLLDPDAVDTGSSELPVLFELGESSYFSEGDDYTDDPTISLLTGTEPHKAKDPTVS

[7] = biological target: T2, Bcl-2-related protein A1 (Mus musculus, UniProt Q07440); format: functional;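 also: confirmatory dose–response counterscreen on Bfl-1, used to check hits from a UBC13 polyubiquitin inhibitor campaign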
T2 sequence (Q07440 whole entry): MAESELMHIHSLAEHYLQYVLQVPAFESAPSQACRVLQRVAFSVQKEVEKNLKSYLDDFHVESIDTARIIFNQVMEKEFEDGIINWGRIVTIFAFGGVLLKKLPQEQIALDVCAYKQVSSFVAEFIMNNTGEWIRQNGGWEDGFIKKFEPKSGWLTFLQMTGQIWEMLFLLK

[8] = biological target: T3, Ubiquitin-conjugating enzyme E2 N (Homo sapiens, UniProt P61088); format: functional
T3 sequence (P61088 whole entry): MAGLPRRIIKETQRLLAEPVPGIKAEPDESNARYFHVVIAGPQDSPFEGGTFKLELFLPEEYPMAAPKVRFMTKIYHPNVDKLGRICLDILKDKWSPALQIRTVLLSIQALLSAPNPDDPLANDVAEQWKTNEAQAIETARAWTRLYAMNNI

[9] = biological target: T3, Ubiquitin-conjugating enzyme E2 N; format: functional; remark: listed apart in the source
[10] = biological target: Nonstructural protein 1 (Influenza A virus, UniProt Q194T2); format: functional, Influenza A virus (A/California/07/2009(H1N1))
Nonstructural protein 1, sequence (Q194T2 whole entry): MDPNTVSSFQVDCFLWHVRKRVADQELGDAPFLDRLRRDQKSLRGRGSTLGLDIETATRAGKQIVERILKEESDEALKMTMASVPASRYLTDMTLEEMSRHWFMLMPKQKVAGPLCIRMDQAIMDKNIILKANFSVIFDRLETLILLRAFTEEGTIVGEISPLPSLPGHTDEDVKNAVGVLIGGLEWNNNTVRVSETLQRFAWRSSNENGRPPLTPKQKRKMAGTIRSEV

[11] = biological target: T4, DNA repair protein RAD52 homolog (Homo sapiens, UniProt P43351); format: functional, biochemical
T4 sequence (P43351 whole entry): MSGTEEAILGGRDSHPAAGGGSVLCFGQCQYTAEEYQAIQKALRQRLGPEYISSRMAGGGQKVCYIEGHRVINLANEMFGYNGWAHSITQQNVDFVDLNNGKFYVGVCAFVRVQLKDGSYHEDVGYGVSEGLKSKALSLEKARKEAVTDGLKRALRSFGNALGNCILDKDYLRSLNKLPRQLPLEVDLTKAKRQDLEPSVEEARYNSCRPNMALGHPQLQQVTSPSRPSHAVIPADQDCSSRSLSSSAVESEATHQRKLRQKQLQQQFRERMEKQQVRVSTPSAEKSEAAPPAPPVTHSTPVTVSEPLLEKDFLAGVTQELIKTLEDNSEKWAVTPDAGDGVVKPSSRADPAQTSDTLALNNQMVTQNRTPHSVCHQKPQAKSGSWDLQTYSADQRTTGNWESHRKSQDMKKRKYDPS

[12] = biological target: G-protein coupled receptor 55 (Homo sapiens, UniProt Q9Y2T6); experiment: inhibition of LPI-stimulated GPR55 beta-arrestin translocation – imaging, U2OS, beta-arrestin-GFP, LPI agonist, primary screen (AID 2013); format: functional;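 also: antagonist potency measured as reduced agonist-driven arrestin aggregation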
G-protein coupled receptor 55, sequence (Q9Y2T6 whole entry): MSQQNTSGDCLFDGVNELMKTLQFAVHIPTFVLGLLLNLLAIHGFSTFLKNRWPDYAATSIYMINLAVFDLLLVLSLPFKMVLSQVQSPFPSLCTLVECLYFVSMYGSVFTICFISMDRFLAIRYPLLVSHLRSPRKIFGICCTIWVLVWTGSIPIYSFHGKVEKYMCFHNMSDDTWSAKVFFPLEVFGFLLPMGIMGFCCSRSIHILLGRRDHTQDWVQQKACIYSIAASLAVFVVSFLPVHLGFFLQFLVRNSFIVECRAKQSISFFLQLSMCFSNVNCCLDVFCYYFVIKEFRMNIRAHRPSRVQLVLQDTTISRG

[13] = biological target: T5, Short transient receptor potential channel 4 (Mus musculus, UniProt Q9QUQ5); experiment: block of DAMGO-driven TRPC4 calcium entry – cell-based, HEK293 TRPC4/mu-opioid, Fluo-4 calcium, dose response (AID 434942); format: functional;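 also: potency of inhibitors blocking the TRPC4 calcium response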
T5 sequence (Q9QUQ5 whole entry): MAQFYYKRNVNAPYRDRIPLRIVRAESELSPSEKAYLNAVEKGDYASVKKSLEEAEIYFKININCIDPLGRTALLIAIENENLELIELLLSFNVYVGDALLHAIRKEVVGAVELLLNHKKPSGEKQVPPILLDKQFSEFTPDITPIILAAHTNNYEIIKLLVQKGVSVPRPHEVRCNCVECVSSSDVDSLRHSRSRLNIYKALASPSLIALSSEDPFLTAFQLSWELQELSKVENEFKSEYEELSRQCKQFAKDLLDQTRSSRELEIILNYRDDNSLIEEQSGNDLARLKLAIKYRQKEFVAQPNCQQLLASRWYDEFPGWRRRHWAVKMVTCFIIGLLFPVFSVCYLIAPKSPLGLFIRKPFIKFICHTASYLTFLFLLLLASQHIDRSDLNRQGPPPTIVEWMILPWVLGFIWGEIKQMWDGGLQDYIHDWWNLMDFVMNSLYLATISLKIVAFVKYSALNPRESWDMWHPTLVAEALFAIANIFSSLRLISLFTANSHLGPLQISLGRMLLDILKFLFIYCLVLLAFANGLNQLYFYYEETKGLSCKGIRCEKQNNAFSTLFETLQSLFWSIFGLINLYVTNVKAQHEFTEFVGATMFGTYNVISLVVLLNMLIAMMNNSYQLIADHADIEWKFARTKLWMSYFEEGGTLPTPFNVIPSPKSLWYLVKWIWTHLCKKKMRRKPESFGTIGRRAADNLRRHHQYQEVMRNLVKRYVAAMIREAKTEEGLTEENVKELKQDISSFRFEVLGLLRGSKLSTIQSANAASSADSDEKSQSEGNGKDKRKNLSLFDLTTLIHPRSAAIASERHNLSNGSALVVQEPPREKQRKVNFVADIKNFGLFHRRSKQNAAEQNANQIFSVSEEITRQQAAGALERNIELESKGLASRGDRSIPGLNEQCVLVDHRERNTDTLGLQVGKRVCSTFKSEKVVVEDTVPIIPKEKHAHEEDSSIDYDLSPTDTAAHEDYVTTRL

[14] = biological target: FAD-linked sulfhydryl oxidase ALR (Homo sapiens, UniProt P55789); experiment: ALR-catalysed DTT oxidation blockers – biochemical, H2O2 detection, luminescence, cherry-pick, dose response (AID 493248)
FAD-linked sulfhydryl oxidase ALR, sequence (P55789 whole entry): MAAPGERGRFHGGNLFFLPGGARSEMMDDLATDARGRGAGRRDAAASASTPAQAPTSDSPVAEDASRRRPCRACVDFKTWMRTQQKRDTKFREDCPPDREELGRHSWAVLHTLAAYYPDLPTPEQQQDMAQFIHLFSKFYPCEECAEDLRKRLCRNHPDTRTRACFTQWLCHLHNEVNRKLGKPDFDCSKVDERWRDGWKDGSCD

[15] = HEK-293T viability loss after treatment – luminescence, T-cell screen hits, cytotoxicity control for TCR NF-kB inhibitor project, dose response (AID 489026); format: functional, cell-based;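 also: cells exposed to compound about 14 hours before the viability readout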
[16] = biological target: Glyceraldehyde-3-phosphate dehydrogenase (Homo sapiens, UniProt P04406)
Glyceraldehyde-3-phosphate dehydrogenase, sequence (P04406 whole entry): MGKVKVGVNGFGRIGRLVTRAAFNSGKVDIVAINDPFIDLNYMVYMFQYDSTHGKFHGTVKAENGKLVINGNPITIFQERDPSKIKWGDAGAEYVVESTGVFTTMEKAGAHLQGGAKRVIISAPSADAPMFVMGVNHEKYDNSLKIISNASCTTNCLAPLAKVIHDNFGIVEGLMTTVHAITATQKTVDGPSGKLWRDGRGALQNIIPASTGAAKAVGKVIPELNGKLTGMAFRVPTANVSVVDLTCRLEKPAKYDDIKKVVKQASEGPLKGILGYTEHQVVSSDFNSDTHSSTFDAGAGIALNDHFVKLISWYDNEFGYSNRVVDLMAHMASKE

[17] = biological target: T6, Alkaline phosphatase, tissue-nonspecific isozyme (Homo sapiens, UniProt P05186); experiment: potency against alkaline phosphatase TNAP – biochemical, luminescent, dose response, SAR follow-up (AID 1056)
T6 sequence (P05186 whole entry): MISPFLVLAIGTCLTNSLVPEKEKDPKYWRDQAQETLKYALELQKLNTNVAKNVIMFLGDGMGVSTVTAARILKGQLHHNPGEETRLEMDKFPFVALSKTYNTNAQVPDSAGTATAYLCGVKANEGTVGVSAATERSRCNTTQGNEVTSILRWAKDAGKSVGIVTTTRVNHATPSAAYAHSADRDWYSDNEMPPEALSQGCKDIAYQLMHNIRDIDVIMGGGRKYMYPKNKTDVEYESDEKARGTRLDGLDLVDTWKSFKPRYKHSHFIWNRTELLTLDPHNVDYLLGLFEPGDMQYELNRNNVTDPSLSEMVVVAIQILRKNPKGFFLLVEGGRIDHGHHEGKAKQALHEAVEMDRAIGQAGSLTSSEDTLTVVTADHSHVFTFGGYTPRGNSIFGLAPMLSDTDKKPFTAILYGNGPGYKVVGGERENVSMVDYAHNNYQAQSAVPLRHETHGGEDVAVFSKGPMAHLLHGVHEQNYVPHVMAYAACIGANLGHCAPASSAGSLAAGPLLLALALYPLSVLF

[18] = microbe, parasite or virus in culture; format: functional; settings: Mycobacterium tuberculosis
[19] = Luminescence Cell-Based Dose Retest to Confirm Inhibitors of Cancer Stem Cells. [Related pubchem assays (depositor defined):AID2717, AID2721]; format: functional; settings: Homo sapiens
[20] = biological target: Melanocortin receptor 4 (Homo sapiens, UniProt P32245); format: functional, cell-based;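 also: Cell-based assay with luminescence read-out, confirmatory dose-response testing for agonist activity of biased ligands at MC4R; human U2OS cells with tagged receptor and beta-arrestin; potency of agonists that increase receptor coupling to beta-arrestin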
Melanocortin receptor 4, sequence (P32245 whole entry): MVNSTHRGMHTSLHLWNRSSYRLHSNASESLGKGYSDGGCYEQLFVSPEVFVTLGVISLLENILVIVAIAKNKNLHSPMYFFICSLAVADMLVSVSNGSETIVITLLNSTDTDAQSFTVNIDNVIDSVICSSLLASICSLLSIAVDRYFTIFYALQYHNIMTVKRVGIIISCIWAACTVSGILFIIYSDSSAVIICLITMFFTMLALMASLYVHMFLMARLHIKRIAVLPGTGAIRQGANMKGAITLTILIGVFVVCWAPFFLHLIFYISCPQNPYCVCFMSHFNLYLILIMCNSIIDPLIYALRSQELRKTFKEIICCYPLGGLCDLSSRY

[21] = biological target: T7, Calpain-2 catalytic subunit (Sus scrofa, UniProt P43367); experiment: m-calpain protease blockers, concentration series – biochemical, fluorogenic peptide substrate, dose response (AID 1420); format: functional
T7 sequence (P43367 whole entry): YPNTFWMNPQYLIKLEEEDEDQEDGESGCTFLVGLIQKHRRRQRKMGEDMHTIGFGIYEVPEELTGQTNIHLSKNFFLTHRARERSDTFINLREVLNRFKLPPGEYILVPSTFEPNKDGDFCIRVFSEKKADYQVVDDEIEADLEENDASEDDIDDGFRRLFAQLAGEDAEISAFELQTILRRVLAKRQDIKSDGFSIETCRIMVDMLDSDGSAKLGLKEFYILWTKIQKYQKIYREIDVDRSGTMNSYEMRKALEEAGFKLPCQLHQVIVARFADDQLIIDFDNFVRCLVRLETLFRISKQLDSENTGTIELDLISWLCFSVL

[22] = luciferase reporter signal suppression in cells – H4 neuroglioma cells, luminescence, dose response (AID 1990); format: functional, cell-based
[23] = Luminescence Cell-Based Dose Response HTS to Identify Inhibitors of 5'UTR Stem-Loop Driven Prion Protein mRNA Translation in H4 Neuroglioblastoma Cells. [Related pubchem assays: 1827 (Project Summary), 1813 (Primary HTS)]; format: functional
[24] = alpha-synuclein stem-loop luciferase translation blockers – H4 neuroglioma cells, luminescence, confirmation (AID 1988); format: functional, cell-based
[25] = test system: INS1; experiment: INS-1E survival protection against cytokine death – cell-based, luminescence, retest, dose response (AID 449756); format: functional; settings: Rattus norvegicus;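 also: cell death triggered by IL-1 beta plus TNF-alpha plus IFN-gamma mixture; protective hits raise ATP signal compared with cytokine alone wells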

In the case of `CC1=NN(C(=O)c2ccc(Cn3nc(C)c(Br)c3C)cc2)C(O)(C(F)(F)F)C1` (centres undefined), the CC50 [1] is reported as 34 µM (active).

For `CCN1C(NCCc2c[nH]c3ccccc23)=N[C@@H](c2ccccc2)[C@H](C(=O)OC)[C@H]1C`, the IC50 [2] was 6.29 µM (active) and the IC50 [3] was 8.65 µM (active).

In the case of `O=C(CC1(O)C(=O)Nc2ccc(Br)cc21)c1ccc2c(c1)OCO2` (centres undefined), the EC50 [4] is reported as > 50 µM (active), the IC50 [5] is reported as 2.3 µM (active) and the EC50 [6] is reported as > 260 µM (inactive).

For `O=C(c1ccc(-c2cc(O)c3ncccc3c2)cc1)N1CCNCC1`, the IC50 [7] was 7 µM (active), the IC50 [8] was 3.61 µM (active) and the IC50 [9] was 3.14 µM (active). The IC50 [10] was 9.74 µM (active) and the AC50 [11] was 1.66 µM (active).

For `C=C(c1ccc(O)cc1)c1ccc(O)cc1`, the IC50 [12] was 1.75 µM (active), the EC50 [13] was 3.76 µM (active) and the AC50 [14] was 0.205 µM (active).

In the case of `COc1ccc(S(=O)(=O)N2N=C(C)Oc3ccccc3C2=O)cc1`, the IC50 [15] is reported as > 80 µM (inactive).

For `Nc1nc2c(s1)CCCCCCCCCC2`, the IC50 [2] was 7.08 µM (active) and the IC50 [3] was 4.49 µM (active).

In the case of `O=S(=O)(Nc1ccccc1I)c1cnc2ccccc2c1`, the IC50 [16] is reported as > 10 µM (inconclusive) and the IC50 [17] is reported as > 10 µM (inactive).

With `O=C(C[n+]1ccc(CCSc2ccc(F)cc2)cc1)c1ccccc1` the IC50 [7] was 5.2 µM (active), the IC50 [8] was 1.46 µM (active) and the IC50 [9] was 1.02 µM (active).

With `COc1cc2nc(Nc3ccc(C)c(Cl)c3)nc(N)c2cc1OC` the CC50 [18] was 3.77 µM (active), the AC50 [19] was 6.52 µM (active) and the IC50 [7] was 18.7 µM (active). For the same compound, the IC50 [8] was 8.57 µM (active), the IC50 [9] was 5.71 µM (active) and the EC50 [20] was > 89.2 µM (inactive). For the same compound, the AC50 [11] was 9.23 µM (active).

For `CC(C)[N+](C)(C)CC(O)CN(c1ccccc1)c1ccccc1` (centres undefined), the IC50 [2] was 3.2 µM (active) and the IC50 [3] was 2.65 µM (active).

With `S=c1[nH]nc(CSCc2ccccc2Cl)n1C1CCCCC1` the IC50 [12] was 3.7 µM (active) and the IC50 [21] was 11.1 µM (not active).

In the case of `CCN1CCN(Cc2ccc(NC(=O)c3cc(NC(=O)C(=O)c4c[nH]c5ccccc45)cc(OC)c3)cc2C(F)(F)F)CC1`, the EC50 [22] is reported as 8.53 µM (active), the EC50 [23] is reported as 6.9 µM (active) and the EC50 [24] is reported as 9.06 µM (active). The IC50 [7] was > 20 µM (inactive), the IC50 [8] was 16.8 µM (active) and the IC50 [9] was 11.9 µM (active). The AC50 [25] was 7.13 µM (active).

With `CCCCSc1nnc(N)[nH]1` the IC50 [16] was > 100 µM (not active) and the IC50 [17] was > 100 µM (inactive).

With `O=C(c1cn(Cc2ccccc2)nc1-c1ccccc1)N1CCN(c2ccccn2)CC1` the IC50 [15] was > 80 µM (inactive).

With `CCOc1cc(S(=O)(=O)Nc2cccnc2)c(OCC)cc1C` the IC50 [17] was 2.61 µM (active).
